For experiment [1], the target named is Homeodomain-interacting protein kinase 3 (Homo sapiens) (UniProt Q9H422). Description: Inhibition of HIPK3 at 1 uM relative to control.
Experiment [2] addresses Mitogen-activated protein kinase 10 (Homo sapiens) (UniProt P53779). Description: Inhibition of JNK3 at 1 uM relative to control.
Experiment [3] concerns the target Tyrosine-protein kinase Lck (Homo sapiens) (UniProt P06239). Description: Inhibition of Lck at 1 uM relative to control.
For experiment [4], the target named is MAP kinase-interacting serine/threonine-protein kinase 1 (Homo sapiens) (UniProt Q9BUB5). Description: Inhibition of MNK1 at 1 uM relative to control.
Sequence of MAP kinase-interacting serine/threonine-protein kinase 1 (Homo sapiens) (Q9BUB5 whole entry, looked up): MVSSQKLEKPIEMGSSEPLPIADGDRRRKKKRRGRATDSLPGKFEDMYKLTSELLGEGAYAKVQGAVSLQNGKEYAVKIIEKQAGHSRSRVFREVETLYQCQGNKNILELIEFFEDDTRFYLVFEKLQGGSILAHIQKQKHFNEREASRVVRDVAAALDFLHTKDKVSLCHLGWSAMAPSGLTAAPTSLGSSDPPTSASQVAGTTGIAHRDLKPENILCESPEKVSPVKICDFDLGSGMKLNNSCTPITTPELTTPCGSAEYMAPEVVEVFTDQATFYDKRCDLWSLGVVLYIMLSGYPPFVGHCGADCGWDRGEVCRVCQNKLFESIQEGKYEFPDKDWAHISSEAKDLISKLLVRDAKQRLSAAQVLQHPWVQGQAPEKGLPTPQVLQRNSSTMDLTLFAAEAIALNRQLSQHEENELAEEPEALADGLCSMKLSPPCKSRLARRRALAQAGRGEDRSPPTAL
Experiment [5] addresses Tyrosine-protein kinase CSK (Homo sapiens) (UniProt P41240). Nature of the experiment: Inhibition of CSK at 1 uM relative to control.
In experiment [6] the target is Mitogen-activated protein kinase 8 (Homo sapiens) (UniProt P45983). Description: Inhibition of JNK1 at 1 uM relative to control.
Sequence of Mitogen-activated protein kinase 8 (Homo sapiens) (P45983 whole entry): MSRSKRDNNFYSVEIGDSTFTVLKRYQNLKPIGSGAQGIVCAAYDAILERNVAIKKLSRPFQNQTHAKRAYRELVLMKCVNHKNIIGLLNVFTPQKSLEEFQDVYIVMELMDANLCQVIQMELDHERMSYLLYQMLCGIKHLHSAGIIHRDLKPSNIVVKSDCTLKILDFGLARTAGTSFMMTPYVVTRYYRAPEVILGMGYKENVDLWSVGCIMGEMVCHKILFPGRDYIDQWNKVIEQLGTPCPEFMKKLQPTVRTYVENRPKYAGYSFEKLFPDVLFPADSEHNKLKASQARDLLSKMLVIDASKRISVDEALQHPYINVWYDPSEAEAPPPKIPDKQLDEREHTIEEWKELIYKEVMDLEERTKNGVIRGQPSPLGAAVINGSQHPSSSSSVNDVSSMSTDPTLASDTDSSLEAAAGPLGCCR
The target in experiment [7] is Mitogen-activated protein kinase 1 (Homo sapiens) (UniProt P28482). Nature of the experiment: Inhibition of ERK2 at 1 uM relative to control.
Experiment [8] has as its target Serine/threonine-protein kinase Nek7 (Homo sapiens) (UniProt Q8TDX7). Description: Inhibition of NEK7 at 1 uM relative to control.
In experiment [9] the target is Ribosomal protein S6 kinase alpha-1 (Homo sapiens) (UniProt Q15418). Description: Inhibition of RSK1 at 1 uM relative to control.
Sequence of Ribosomal protein S6 kinase alpha-1 (Homo sapiens) (Q15418 whole entry): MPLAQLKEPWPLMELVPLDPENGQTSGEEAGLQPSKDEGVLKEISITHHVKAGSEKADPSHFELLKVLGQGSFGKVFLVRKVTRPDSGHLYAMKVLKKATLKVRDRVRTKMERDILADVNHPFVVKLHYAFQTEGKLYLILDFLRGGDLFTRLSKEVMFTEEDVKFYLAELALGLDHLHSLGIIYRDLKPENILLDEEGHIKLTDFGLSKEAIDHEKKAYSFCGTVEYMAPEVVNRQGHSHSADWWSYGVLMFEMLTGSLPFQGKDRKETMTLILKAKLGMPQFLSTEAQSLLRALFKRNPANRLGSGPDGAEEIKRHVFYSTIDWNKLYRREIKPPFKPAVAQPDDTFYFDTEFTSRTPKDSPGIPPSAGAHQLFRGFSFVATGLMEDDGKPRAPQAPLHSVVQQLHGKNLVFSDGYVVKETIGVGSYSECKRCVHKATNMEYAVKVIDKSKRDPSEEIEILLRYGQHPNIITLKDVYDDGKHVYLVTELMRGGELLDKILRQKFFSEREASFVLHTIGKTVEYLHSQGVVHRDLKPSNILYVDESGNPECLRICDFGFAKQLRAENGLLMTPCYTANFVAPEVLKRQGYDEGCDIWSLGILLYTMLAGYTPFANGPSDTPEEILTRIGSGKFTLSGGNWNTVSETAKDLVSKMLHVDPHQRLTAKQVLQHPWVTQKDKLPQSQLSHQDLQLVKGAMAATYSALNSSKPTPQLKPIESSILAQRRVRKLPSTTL
In experiment [10] the target is MAP/microtubule affinity-regulating kinase 3 (Homo sapiens) (UniProt P27448). Description: Inhibition of MARK3 at 1 uM relative to control.
Sequence of MAP/microtubule affinity-regulating kinase 3 (Homo sapiens) (P27448 whole entry, looked up): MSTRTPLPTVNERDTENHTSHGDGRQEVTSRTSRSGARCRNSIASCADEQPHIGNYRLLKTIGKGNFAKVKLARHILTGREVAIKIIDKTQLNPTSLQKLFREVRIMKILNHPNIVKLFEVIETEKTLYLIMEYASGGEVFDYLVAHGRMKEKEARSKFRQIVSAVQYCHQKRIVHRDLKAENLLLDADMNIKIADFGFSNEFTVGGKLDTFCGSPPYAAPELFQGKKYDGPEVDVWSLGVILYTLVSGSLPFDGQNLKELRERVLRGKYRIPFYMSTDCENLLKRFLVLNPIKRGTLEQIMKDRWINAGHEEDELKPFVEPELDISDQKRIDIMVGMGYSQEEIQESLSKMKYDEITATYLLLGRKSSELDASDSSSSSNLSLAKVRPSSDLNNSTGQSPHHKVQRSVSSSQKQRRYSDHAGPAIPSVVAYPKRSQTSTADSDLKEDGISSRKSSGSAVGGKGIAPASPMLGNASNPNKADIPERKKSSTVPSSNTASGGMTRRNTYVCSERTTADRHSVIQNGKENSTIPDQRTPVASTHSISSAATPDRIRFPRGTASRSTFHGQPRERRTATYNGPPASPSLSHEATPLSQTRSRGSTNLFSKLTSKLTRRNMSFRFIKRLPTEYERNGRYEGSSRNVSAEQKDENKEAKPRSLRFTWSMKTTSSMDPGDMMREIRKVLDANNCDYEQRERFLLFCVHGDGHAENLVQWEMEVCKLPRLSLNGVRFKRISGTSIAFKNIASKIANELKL
For experiment [11], the target named is T1, Serine/threonine-protein kinase Nek2 (Homo sapiens) (UniProt P51955).
T1 sequence (whole entry): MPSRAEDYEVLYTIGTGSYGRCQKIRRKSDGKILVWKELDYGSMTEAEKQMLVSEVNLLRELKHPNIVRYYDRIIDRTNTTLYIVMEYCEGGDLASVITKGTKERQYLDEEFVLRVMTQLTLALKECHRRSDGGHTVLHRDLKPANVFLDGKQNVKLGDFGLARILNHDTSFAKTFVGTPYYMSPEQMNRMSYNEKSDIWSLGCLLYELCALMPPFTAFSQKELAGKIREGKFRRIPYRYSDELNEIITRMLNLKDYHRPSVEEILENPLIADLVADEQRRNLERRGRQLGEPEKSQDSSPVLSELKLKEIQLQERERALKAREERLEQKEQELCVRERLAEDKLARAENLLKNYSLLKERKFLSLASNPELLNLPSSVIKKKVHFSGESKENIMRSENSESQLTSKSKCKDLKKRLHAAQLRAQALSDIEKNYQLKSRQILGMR
Nature of the experiment: Inhibition of NEK2a at 1 uM relative to control.

Experiment [12] deals with T2, MAP kinase-activated protein kinase 5 (Homo sapiens) (UniProt Q8IW41).
T2 sequence (whole entry): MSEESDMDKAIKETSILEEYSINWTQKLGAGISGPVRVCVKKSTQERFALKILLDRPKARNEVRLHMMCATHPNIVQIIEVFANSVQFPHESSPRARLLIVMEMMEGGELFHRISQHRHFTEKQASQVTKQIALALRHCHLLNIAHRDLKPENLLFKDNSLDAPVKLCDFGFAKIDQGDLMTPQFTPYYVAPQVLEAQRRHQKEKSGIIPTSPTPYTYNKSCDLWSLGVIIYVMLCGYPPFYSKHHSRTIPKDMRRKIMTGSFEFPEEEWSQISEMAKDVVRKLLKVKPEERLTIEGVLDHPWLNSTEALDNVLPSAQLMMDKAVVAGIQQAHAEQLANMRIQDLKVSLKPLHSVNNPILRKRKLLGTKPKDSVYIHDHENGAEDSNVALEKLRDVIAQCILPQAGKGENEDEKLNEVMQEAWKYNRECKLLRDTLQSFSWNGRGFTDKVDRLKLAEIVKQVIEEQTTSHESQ
Nature of the experiment: Inhibition of PRAK at 1 uM relative to control.

Experiment [13] deals with Serine/threonine-protein kinase PLK1 (Homo sapiens) (UniProt P53350). Description: Inhibition of okadaic acid activated PLK1 at 1 uM relative to control.
Sequence of Serine/threonine-protein kinase PLK1 (Homo sapiens) (P53350 whole entry): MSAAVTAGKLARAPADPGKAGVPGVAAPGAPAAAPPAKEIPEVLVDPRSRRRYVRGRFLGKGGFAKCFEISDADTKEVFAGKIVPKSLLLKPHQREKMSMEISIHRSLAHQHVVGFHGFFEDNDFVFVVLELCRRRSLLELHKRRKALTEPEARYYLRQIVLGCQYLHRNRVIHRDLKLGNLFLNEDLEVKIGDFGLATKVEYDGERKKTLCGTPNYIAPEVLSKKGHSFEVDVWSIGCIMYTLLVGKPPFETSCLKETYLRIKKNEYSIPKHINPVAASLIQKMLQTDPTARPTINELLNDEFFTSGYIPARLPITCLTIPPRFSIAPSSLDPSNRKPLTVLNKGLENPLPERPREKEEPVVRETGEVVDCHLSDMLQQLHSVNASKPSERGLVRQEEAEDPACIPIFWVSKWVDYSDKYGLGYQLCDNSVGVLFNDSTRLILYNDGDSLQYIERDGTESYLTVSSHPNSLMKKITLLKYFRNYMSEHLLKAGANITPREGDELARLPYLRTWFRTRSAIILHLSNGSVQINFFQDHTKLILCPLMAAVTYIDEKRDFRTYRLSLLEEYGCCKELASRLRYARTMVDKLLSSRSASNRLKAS
The target in experiment [14] is Serine/threonine-protein kinase PAK 5 (Homo sapiens) (UniProt Q9P286). Nature of the experiment: Inhibition of PAK5 at 1 uM relative to control.
For experiment [15], the target named is Ribosomal protein S6 kinase alpha-3 (Homo sapiens) (UniProt P51812). Nature of the experiment: Inhibition of RSK2 at 1 uM relative to control.
In experiment [16] the target is Dual specificity mitogen-activated protein kinase kinase 1 (Homo sapiens) (UniProt Q02750). Description: Inhibition of MKK1 at 1 uM relative to control.
In experiment [17] the target is Protein kinase C alpha type (Homo sapiens) (UniProt P17252). Nature of the experiment: Inhibition of PKCalpha at 1 uM relative to control.
Experiment [18] deals with Proto-oncogene tyrosine-protein kinase Src (Homo sapiens) (UniProt P12931). Description: Inhibition of Src at 1 uM relative to control.
In experiment [19] the target is Rho-associated protein kinase 2 (Homo sapiens) (UniProt O75116). Nature of the experiment: Inhibition of ROCK2 at 1 uM relative to control.
In experiment [20] the target is T3, Inhibitor of nuclear factor kappa-B kinase subunit beta (Homo sapiens) (UniProt O14920).
T3 sequence (whole entry): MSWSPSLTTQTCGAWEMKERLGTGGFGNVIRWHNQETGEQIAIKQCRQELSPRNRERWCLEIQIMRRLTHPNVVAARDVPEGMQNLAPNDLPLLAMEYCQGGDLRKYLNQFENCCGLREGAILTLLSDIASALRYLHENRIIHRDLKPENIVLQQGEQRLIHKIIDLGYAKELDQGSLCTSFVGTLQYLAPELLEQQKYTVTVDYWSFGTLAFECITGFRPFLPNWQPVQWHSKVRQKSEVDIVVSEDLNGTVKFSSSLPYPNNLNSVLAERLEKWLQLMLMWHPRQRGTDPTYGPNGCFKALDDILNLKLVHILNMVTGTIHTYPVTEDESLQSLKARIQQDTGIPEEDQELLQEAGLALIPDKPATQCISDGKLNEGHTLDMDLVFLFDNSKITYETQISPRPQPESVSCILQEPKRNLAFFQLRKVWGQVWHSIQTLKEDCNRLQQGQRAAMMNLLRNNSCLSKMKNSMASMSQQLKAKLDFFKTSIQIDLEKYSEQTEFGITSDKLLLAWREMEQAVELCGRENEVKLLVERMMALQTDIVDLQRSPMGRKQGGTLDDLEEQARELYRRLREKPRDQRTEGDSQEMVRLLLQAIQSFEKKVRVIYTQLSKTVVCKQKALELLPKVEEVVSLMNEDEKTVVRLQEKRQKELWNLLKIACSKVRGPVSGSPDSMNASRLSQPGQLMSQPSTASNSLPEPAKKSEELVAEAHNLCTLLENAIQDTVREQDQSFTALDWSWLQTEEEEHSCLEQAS
Nature of the experiment: Inhibition of IKK-beta at 1 uM relative to control.

Experiment [21] can be described thus: Inhibition of CK2 at 1 uM relative to control.

Sequence of Mitogen-activated protein kinase 10 (Homo sapiens) (P53779 whole entry): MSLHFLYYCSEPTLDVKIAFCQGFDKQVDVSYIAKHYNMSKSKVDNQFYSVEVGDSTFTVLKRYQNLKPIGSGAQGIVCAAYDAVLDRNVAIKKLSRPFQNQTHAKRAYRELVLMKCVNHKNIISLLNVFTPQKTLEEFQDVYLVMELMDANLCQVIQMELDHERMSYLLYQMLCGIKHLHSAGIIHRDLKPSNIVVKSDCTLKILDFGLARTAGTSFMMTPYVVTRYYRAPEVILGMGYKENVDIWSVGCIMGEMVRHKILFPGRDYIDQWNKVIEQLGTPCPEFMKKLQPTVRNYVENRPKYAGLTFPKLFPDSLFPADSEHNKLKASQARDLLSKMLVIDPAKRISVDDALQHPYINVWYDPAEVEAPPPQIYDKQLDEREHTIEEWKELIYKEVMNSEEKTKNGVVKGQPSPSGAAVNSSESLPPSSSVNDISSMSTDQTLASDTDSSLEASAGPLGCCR
Sequence of Serine/threonine-protein kinase Nek7 (Homo sapiens) (Q8TDX7 whole entry, looked up): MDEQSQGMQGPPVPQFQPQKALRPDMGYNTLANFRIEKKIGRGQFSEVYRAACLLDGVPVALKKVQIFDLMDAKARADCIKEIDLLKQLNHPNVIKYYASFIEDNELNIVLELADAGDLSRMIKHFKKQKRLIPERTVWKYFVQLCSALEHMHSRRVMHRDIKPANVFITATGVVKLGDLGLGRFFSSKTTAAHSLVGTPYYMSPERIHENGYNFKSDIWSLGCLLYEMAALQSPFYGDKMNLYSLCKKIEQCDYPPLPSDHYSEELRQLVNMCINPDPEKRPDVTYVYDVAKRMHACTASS
Sequence of Tyrosine-protein kinase Lck (Homo sapiens) (P06239 2-509 limits assumed): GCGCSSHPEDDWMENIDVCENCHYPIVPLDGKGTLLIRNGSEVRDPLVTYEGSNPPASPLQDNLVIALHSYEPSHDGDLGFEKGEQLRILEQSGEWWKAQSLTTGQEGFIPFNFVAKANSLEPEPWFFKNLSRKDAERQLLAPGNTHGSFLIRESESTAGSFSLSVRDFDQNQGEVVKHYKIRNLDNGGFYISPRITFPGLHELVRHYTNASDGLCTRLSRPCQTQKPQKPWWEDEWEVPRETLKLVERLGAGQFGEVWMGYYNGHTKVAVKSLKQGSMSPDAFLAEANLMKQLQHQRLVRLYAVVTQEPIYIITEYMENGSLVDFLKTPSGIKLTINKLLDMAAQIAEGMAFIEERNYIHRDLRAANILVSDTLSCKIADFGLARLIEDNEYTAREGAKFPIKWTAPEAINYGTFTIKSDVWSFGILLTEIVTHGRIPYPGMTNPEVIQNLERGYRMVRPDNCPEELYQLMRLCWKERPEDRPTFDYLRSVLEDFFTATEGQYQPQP

Turning to `O=C(Nc1cc(C(F)(F)F)ccc1F)Nc1ccc(Oc2ccnc3[nH]c(=O)[nH]c23)c2ccccc12`, the residual activity in experiment [1] was 100%; in experiment [2], 100%; in experiment [3] it was less than 25%; in experiment [4] it was 100%; in experiment [5], less than 25%; in experiment [6], 75%. Further, the residual activity in experiment [7] is 100%; in experiment [8], 100%; in experiment [9], 75%; in experiment [10], 75%; in experiment [11] it was 100%; in [12], 75%. Moreover, the residual activity in [13] was 100%; in experiment [14], 100%; in experiment [15] it was 100%; in [16] it was 100%; in experiment [17], 75%; in experiment [18], less than 25%. The residual activity came to 75% in experiment [19], 100% in [20] and 100% in [21].
Take `CSc1cc(Oc2ccnc3[nH]c(=O)[nH]c23)ccc1NC(=O)Nc1cccc(C(F)(F)F)c1`: the residual activity is 100% in experiment [1]; 100% in experiment [2]; less than 25% in experiment [3]; 100% in experiment [4]; less than 25% in [5]; 100% in experiment [6]. Further, the residual activity in [7] worked out at 100%; in experiment [8] it was 100%; in [9], 100%; in experiment [10], 75%; in experiment [11], 100%; in experiment [12] it was 75%. Further, the residual activity in [13] is 100%; in experiment [14], 75%; in experiment [15], 100%; in experiment [16], 100%; in experiment [17], 75%; in experiment [18], less than 25%. Besides, the residual activity in experiment [19] was found to be 75%; in experiment [20] it was 100%; in [21], 100%.
As for `CC(C)(C)c1cccc(NC(=O)Nc2ccc(Oc3ccnc4[nH]c(=O)[nH]c34)c3ccccc23)c1`, the residual activity in experiment [1] was 100%; in [2], 75%; in [3] it was less than 25%; in experiment [4] it was 75%; in [5], 50%; in [6] it was 75%. For the same compound, the residual activity in experiment [7] was 75%; in experiment [8], 75%; in experiment [9], 75%; in experiment [10] it was 100%; in experiment [11], 75%; in experiment [12] it was 75%. Also, the residual activity in experiment [13] is 75%; in experiment [14] it was 75%; in experiment [15] it was 75%; in experiment [16], 75%; in experiment [17], 75%; in [18] it was less than 25%. Besides, the residual activity in [19] was 75%; in experiment [20] it was 75%; in [21], 100%.

Values taken from ChEMBL document CHEMBL1136991, “Novel potent BRAF inhibitors: toward 1 nM compounds through optimization of the central phenyl ring” (J Med Chem, 2009).
